molecular target: T1, CHK1 kinase (Homo sapiens, UniProt O14757); test: Flashplate method (CHK1), measurement of the CHK1 kinase activity; format: biochemical; conditions: class symbols; 'Affinity to receptors'
T1 construct: glutathione S-transferase (GST); made in house; host or cells: Sf21 insect cells (S. frugiperda), baculovirus
T1 sequence (O14757 1-476): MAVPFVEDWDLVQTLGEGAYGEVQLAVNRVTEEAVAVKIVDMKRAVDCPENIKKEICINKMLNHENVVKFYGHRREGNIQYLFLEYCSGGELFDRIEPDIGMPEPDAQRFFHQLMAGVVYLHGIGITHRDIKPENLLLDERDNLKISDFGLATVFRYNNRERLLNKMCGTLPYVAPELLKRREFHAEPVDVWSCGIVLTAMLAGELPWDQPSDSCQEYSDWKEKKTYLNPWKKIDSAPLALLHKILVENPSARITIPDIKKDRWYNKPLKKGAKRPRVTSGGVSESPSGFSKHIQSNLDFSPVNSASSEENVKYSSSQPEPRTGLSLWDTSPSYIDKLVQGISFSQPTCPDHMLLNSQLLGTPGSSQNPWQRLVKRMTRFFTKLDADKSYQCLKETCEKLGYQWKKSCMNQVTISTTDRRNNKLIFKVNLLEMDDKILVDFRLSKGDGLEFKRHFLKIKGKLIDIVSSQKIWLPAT
Method in brief: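 GST-tagged CHK1 expressed in Sf21 insect cells, incubated at 30 °C with biotinylated CHKtide (0.15 μg per well) and γ33P-ATP in pH 7.5 buffer (EGTA, Mg acetate, mercaptoethanol, 0.1% BSA). Stopped with EDTA, captured on streptavidin Flashplates and counted by scintillation. IC50 set against uninhibited reaction and 0.1 μM staurosporine as zero.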

IC50, > 1000 nM:
O=c1c(NCc2cccc(OS(=O)(=O)C(F)(F)F)c2)c(Nc2ccc3[nH]cnc3c2)c1=O [Compound A133, 3-(1H-benzimidazol-5-ylamino)-4-(3-trifluoro-methylsulfonyloxybenzylamino)cyclobut-3-ene-1,2-dione]
O=CNc1cccc(CNc2c(Nc3ccc4[nH]cnc4c3)c(=O)c2=O)c1 [Compound A134, 3-(1H-benzimidazol-5-ylamino)-4-(3-formyl-aminobenzylamino)cyclobut-3-ene-1,2-dione]
O=c1c(NCc2cccc3[nH]ccc23)c(Nc2ccc3[nH]cnc3c2)c1=O [Compound A135, 3-(1H-benzimidazol-5-ylamino)-4-[(1H-indol-4-ylmethyl)amino]cyclobut-3-ene-1,2-dione]
O=c1c(NCc2cc(O)ccc2F)c(Nc2ccc3[nH]cnc3c2)c1=O [Compound A136, 3-(1H-benzimidazol-5-ylamino)-4-(2-fluoro-5-hydroxybenzylamino)cyclobut-3-ene-1,2-dione]
O=c1c(NCc2ccc3cc[nH]c3c2)c(Nc2ccc3[nH]cnc3c2)c1=O [Compound A137, 3-(1H-benzimidazol-5-ylamino)-4-[(1H-indol-6-ylmethyl)amino]cyclobut-3-ene-1,2-dione]
COc1cccc(C(CCC2OCCCO2)Nc2c(Nc3ccc4[nH]cnc4c3)c(=O)c2=O)c1 (stereo not drawn) [Compound A138, 3-(1H-benzimidazol-5-ylamino)-4-[3-[1,3]-dioxan-2-yl-1-(3-methoxyphenyl)propyl-amino]cyclobut-3-ene-1,2-dione]
O=c1c(NCc2ccc(O)cc2)c(Nc2ccc3[nH]cnc3c2)c1=O [Compound A139, 3-(1H-benzimidazol-5-ylamino)-4-(4-hydroxy-benzylamino)cyclobut-3-ene-1,2-dione]
O=c1c(NCCc2ccc(O)cc2)c(Nc2ccc3[nH]cnc3c2)c1=O [Compound A140, 3-(1H-benzimidazol-5-ylamino)-4-[2-(4-hydroxyphenyl)ethylamino]cyclobut-3-ene-1,2-dione]
CN1CCN(c2ccc(CNc3c(Nc4ccc5[nH]cnc5c4)c(=O)c3=O)cc2)CC1 [Compound A141, 3-(1H-benzimidazol-5-ylamino)-4-[4-(4-methylpiperazin-1-yl)benzylamino]cyclobut-3-ene-1,2-dione]
O=c1c(NCCc2cccc(O)c2)c(Nc2ccc3[nH]cnc3c2)c1=O [Compound A142, 3-(1H-benzimidazol-5-ylamino)-4-[2-(3-hydroxyphenyl)ethylamino]cyclobut-3-ene-1,2-dione]
COc1ccccc1CCNc1c(Nc2ccc3[nH]cnc3c2)c(=O)c1=O [Compound A143, 3-(1H-benzimidazol-5-ylamino)-4-[2-(2-methoxyphenyl)ethylamino]cyclobut-3-ene-1,2-dione]
COc1ccccc1CNc1c(Nc2ccc3[nH]cnc3c2)c(=O)c1=O [Compound A144, 3-(1H-benzimidazol-5-ylamino)-4-(2-methoxybenzylamino)cyclobut-3-ene-1,2-dione]
CC(C)(C)OC(=O)N1CCC(Oc2ccccc2CNc2c(Nc3ccc4[nH]cnc4c3)c(=O)c2=O)CC1 [Compound A146, 3-(1H-benzimidazol-5-ylamino)-4-[2-(1-tert-butyloxycarbonylpiperidin-4-yloxy)benzyl-amino]cyclobut-3-ene-1,2-dione]
CN(C)c1ccc(CNc2c(Nc3ccc4[nH]cnc4c3)c(=O)c2=O)cc1 [Compound A147, 3-(1H-benzimidazol-5-ylamino)-4-(4-dimethylaminobenzylamino)cyclobut-3-ene-1,2-dione]
O=c1c(NCc2ccccc2OC2CCNCC2)c(Nc2ccc3[nH]cnc3c2)c1=O [Compound A148, 3-(1H-benzimidazol-5-ylamino)-4-[2-(piperidin-4-yloxy)benzylamino]cyclobut-3-ene-1,2-dione]

Source: patent publication US20080234266A1, “Squaric Acid Derivatives II” (priority 2005, published 2008)
